Patent EP0856015B1, “NEW POLYACRYLAMIDE MATRICES IN ELECTROPHORETIC AND CHROMATOGRAPHIC TECHNIQUES” (RIGHETTI, Pier Giorgio, priority 1995, dated 1997)

Columns and labels:
[1] = Partitioning of monomers between water and n-octanol, aqueous phase analysed by CZE; assay type: physicochemical; conditions: 2 mM monomer, 25°C
Description: To that aim, aqueous solutions of these monomers have been subjected to partitioning against n-octanol. After partitioning, the aqueous phase is analyzed by capillary electrophoresis and the molar ratio of the various monomers in the two phases determined. […] Hydrophobicity scale of acrylamide and N-substituted derivatives. Each monomer was dissolved in aqueous solution (3.5 mL) at a concentration of 2 mM and mixed with an equal volume of n-octanol for 2 min. After phase separation, the aqueous solution is centrifuged for 75 min at 2000 rpm. All operations at 25°C. The solution, after dilution, is added with internal standard (2.5 mM of pK 9.3 Immobiline) and analyzed by CZE. For abbreviations see Fig. 1. Other abbreviations: MMA: […] ACM: N-acryloyl morpholine; […]: dideoxy […].

[2] = Hydrolysis kinetics of free monomers under mild alkaline conditions, residual monomer quantified by capillary electrophoresis; conditions: 0.1N NaOH, 70°C

| SMILES | hydrophilicity (from partition coefficients P) [1] | degradation kinetics [2] | logP ([1]; read-out: partition coefficient P (converted)) | hydrolysis constant (K) [2] [M⁻¹ s⁻¹] | hydrolysis constant, times smaller than that of acrylamide [2] [times] |
| --- | --- | --- | --- | --- | --- |
| C=CC(=O)NC(CO)(CO)CO [Trisacryl, N-acryloyl-2-amino-2-hydroxymethyl-1,3 propandiol, reference compound] | by far the most hydrophilic molecule | zero-order kinetics | – | – | – |
| C=CC(=O)NCCCCO [AAB] | close to that of acrylamide | – | -0.62 | – | – |
| C=CC(=O)N1CCOCC1 [N-acryloyl morpholine, reference compound] | – | a more rapid degradation kinetic | – | – | – |
| C=CC(=O)NCCCO [AAP] | twice as hydrophilic as acrylamide | first order kinetics | – | 0.00013 | 8 |
